Reference: PubChem BioAssay AID330 (DTP/NCI, 2004)
Several values for one entry are separate records, joined by “and”; a condition that tells them apart may be missing. Identical values can stand only once. Toxic doses and inconclusive results are not listed. Rule for the calls: active = survival T/C of 150% or more; inactive = T/C below 125% in these data.

System: P388 leukemia ip, CD2F1 mice, survival T/C
Assay: NCI In Vivo Anticancer Drug Screen. Data for tumor model P388 Leukemia (intraperitoneal) in CD2F1 (CDF1) mice
Conditions: endpoint: median survival time, higher = longer survival
Summary of the method: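 Mice carrying the transplanted tumor received test compound or vehicle. Survival was recorded in each group, and the value is the treated-group measurement divided by that of the vehicle-treated control group.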

[1] = dose: 100.0 mg/kg/injection, schedule: Q01DX009 (ip), vehicle: saline with Tween-80
[2] = dose: 60.0 mg/kg/injection, schedule: Q01DX005 (ip), vehicle: saline with Tween-80
[3] = dose: 120.0 mg/kg/injection, schedule: Q01DX005 (ip), vehicle: saline with Tween-80
[4] = dose: 240.0 mg/kg/injection, schedule: Q01DX005 (ip), vehicle: saline with Tween-80
[5] = dose: 50.0 mg/kg/injection, schedule: Q01DX009 (ip), vehicle: saline
[6] = dose: 100.0 mg/kg/injection, schedule: Q01DX009 (ip), vehicle: saline
[7] = dose: 200.0 mg/kg/injection, schedule: Q01DX009 (ip), vehicle: saline
[8] = dose: 100.0 mg/kg/injection, schedule: Q01DX001 (ip), vehicle: saline with Tween-80
[9] = dose: 200.0 mg/kg/injection, schedule: Q01DX001 (ip), vehicle: saline with Tween-80
[10] = dose: 400.0 mg/kg/injection, schedule: Q01DX001 (ip), vehicle: saline with Tween-80
[11] = dose: 50.0 mg/kg/injection, schedule: Q01DX005 (ip), vehicle: saline with Tween-80
[12] = dose: 100.0 mg/kg/injection, schedule: Q01DX005 (ip), vehicle: saline with Tween-80
[13] = dose: 200.0 mg/kg/injection, schedule: Q01DX005 (ip), vehicle: saline with Tween-80
[14] = dose: 50.0 mg/kg/injection, schedule: Q01DX009 (ip), vehicle: saline with Tween-80

Measured: T/C

N=Cc1c(O)n(C2CCCCC2)c(=O)[nH]c1=O
inactive: [1] 90 % of control | dose: 400.0 mg/kg/injection, schedule: Q01DX009 (ip), vehicle: saline with Tween-80 95 % of control

COc1ccc2c3c([nH]c2c1)[C@H](CC(C)(C)O)N1C(=O)[C@@H]2CCCN2C(=O)[C@]1(O)[C@H]3O
inactive: dose: 6.25 mg/kg/injection, schedule: Q01DX005 (ip), vehicle: Klucel (hydroxypropylcellulose) (HPC) 100 % of control | dose: 12.5 mg/kg/injection, schedule: Q01DX005 (ip), vehicle: Klucel (hydroxypropylcellulose) (HPC) 105 % of control | dose: 25.0 mg/kg/injection, schedule: Q01DX005 (ip), vehicle: Klucel (hydroxypropylcellulose) (HPC) 108 % of control | dose: 50.0 mg/kg/injection, schedule: Q01DX005 (ip), vehicle: Klucel (hydroxypropylcellulose) (HPC) 116 % of control

N/C(=N\O)c1c(Br)n(C2OC(CO)C(O)C2O)c2ncnc(N)c12 (configuration not stated)
inactive: [2] 109 % of control and 122 % of control | [3] 120 % of control and 122 % of control | [4] 116 % of control | dose: 480.0 mg/kg/injection, schedule: Q01DX005 (ip), vehicle: saline with Tween-80 114 % of control

CN1COc2c(n(C)c(=O)[nH]c2=O)C1
inactive: dose: 50.0 mg/kg/injection, schedule: Q01DX005 (ip), vehicle: saline 102 % of control and 106 % of control | dose: 100.0 mg/kg/injection, schedule: Q01DX005 (ip), vehicle: saline 114 % of control and 115 % of control

O=[N+]([O-])c1ccc(-c2nc3ncncc3[nH]2)cc1
inactive: dose: 6.25 mg/kg/injection, schedule: Q01DX009 (ip), vehicle: Klucel (hydroxypropylcellulose) (HPC) 107 % of control | dose: 12.5 mg/kg/injection, schedule: Q01DX009 (ip), vehicle: Klucel (hydroxypropylcellulose) (HPC) 99 % of control

CC(=O)O.[Bi]
inactive: dose: 60.0 mg/kg/injection, schedule: Q01DX005 (ip), vehicle: Klucel (hydroxypropylcellulose) (HPC) 97 % of control | dose: 120.0 mg/kg/injection, schedule: Q01DX005 (ip), vehicle: Klucel (hydroxypropylcellulose) (HPC) 96 % of control | dose: 240.0 mg/kg/injection, schedule: Q01DX005 (ip), vehicle: Klucel (hydroxypropylcellulose) (HPC) 99 % of control

COP(=O)(O)Oc1ccccc1 (tested in a mixture with another compound)
inactive: [5] 101 % of control | [6] 100 % of control | [7] 99 % of control

CCOc1ccccc1C(=O)Nc1cc(C)nn1-c1ccccc1
inactive: [8] 102 % of control | [9] 100 % of control | [10] 106 % of control

CSc1nc(SC)c2cnn(COCCO)c2n1
inactive: [11] 92 % of control | [12] 92 % of control | [13] 92 % of control

CSC1CC(C)(O)Cc2cc3c(c(O)c21)C(=O)c1c(O)cc2c(c1C3=O)OC1OC2(C)C(O)C(N(C)C)C1O (configuration not stated)
inactive: dose: 16.0 mg/kg/injection, schedule: Q01DX009 (ip), vehicle: other 100 % of control

COC(=O)c1cc(=O)n(-c2ccccc2C)c(SC)n1
inactive: dose: 100.0 mg/kg/injection, schedule: Q04DX002 (ip), vehicle: Klucel (hydroxypropylcellulose) (HPC) 105 % of control | dose: 200.0 mg/kg/injection, schedule: Q04DX002 (ip), vehicle: Klucel (hydroxypropylcellulose) (HPC) 105 % of control

CCCCCCCCCCCCCCCCCCOS(=O)(=O)O (tested in a mixture with another compound)
inactive: [5] 102 % of control | [6] 104 % of control | [7] 104 % of control

Nc1nc(SCc2ccccc2)c2ncn(CCCl)c2n1
inactive: dose: 0.78 mg/kg/injection, schedule: Q01DX009 (ip), vehicle: saline 97 % of control | dose: 1.56 mg/kg/injection, schedule: Q01DX009 (ip), vehicle: saline 101 % of control | dose: 3.12 mg/kg/injection, schedule: Q01DX009 (ip), vehicle: saline 105 % of control | dose: 6.25 mg/kg/injection, schedule: Q01DX009 (ip), vehicle: saline 102 % of control and 95 % of control | dose: 6.25 mg/kg/injection, schedule: Q01DX009 (ip), vehicle: suspension in saline 103 % of control | dose: 25.0 mg/kg/injection, schedule: Q01DX009 (ip), vehicle: saline 100 % of control | [5] 111 % of control | dose: 50.0 mg/kg/injection, schedule: Q01DX009 (ip), vehicle: suspension in saline 94 % of control

CCCC1OC1(CC)COC(=O)NC (configuration not stated)
inactive: [11] 100 % of control | [12] 101 % of control | [13] 117 % of control

c1ccc(SCc2ccc3c(c2)OCO3)cc1
inactive: dose: 100.0 mg/kg/injection, schedule: Q01DX001 (ip), vehicle: Klucel (hydroxypropylcellulose) (HPC) 107 % of control | dose: 200.0 mg/kg/injection, schedule: Q01DX001 (ip), vehicle: Klucel (hydroxypropylcellulose) (HPC) 102 % of control | dose: 400.0 mg/kg/injection, schedule: Q01DX001 (ip), vehicle: Klucel (hydroxypropylcellulose) (HPC) 100 % of control

Cc1ccc(NCc2ccccn2)nc1
inactive: [11] 99 % of control | [12] 89 % of control

CC(=O)OC1CC(OC(C)=O)C(OC(C)=O)C(CS[As](C)C)O1 (configuration not stated)
inactive: [14] 99 % of control | [1] 99 % of control | dose: 200.0 mg/kg/injection, schedule: Q01DX009 (ip), vehicle: saline with Tween-80 96 % of control

O=[N+]([O-])c1ccc(-c2csc(=[N+]3CCCCC3)s2)cc1
inactive: dose: 6.25 mg/kg/injection, schedule: Q01DX009 (ip), vehicle: water 106 % of control and 114 % of control | dose: 12.5 mg/kg/injection, schedule: Q01DX009 (ip), vehicle: water 114 % of control

O=C(Oc1ccccc1OC(=O)c1ccccc1)c1ccccc1
inactive: dose: 6.25 mg/kg/injection, schedule: Q01DX009 (ip), vehicle: saline with Tween-80 108 % of control | dose: 12.5 mg/kg/injection, schedule: Q01DX009 (ip), vehicle: saline with Tween-80 102 % of control | dose: 25.0 mg/kg/injection, schedule: Q01DX009 (ip), vehicle: saline with Tween-80 106 % of control | [14] 108 % of control

O=c1[nH]c2c(c(=O)[nH]1)CCCCCC2
inactive: dose: 25.0 mg/kg/injection, schedule: Q01DX009 (ip), vehicle: Klucel (hydroxypropylcellulose) (HPC) 102 % of control and 103 % of control | dose: 50.0 mg/kg/injection, schedule: Q01DX009 (ip), vehicle: Klucel (hydroxypropylcellulose) (HPC) 99 % of control and 103 % of control | dose: 100.0 mg/kg/injection, schedule: Q01DX009 (ip), vehicle: Klucel (hydroxypropylcellulose) (HPC) 91 % of control and 97 % of control | dose: 200.0 mg/kg/injection, schedule: Q01DX009 (ip), vehicle: Klucel (hydroxypropylcellulose) (HPC) 102 % of control and 94 % of control

COc1ccc(Cc2cc3c(cc2OC)OCO3)c(OC)c1
inactive: [2] 100 % of control | [3] 108 % of control | [4] 112 % of control

O=C(O)CCN(Cc1ccccc1)Cc1ccccc1
inactive: dose: 100.0 mg/kg/injection, schedule: Q04DX003 (ip), vehicle: saline 100 % of control | dose: 200.0 mg/kg/injection, schedule: Q04DX003 (ip), vehicle: saline 100 % of control | dose: 400.0 mg/kg/injection, schedule: Q04DX003 (ip), vehicle: saline 109 % of control

C=CC1C(OC2OC(CO)C(O)C(O)C2O)OC=C(C(=O)OC)C1CC1CC(=O)CC(CCc2ccc(O)cc2)O1 (configuration not stated)
inactive: dose: 8.0 mg/kg/injection, schedule: Q01DX005 (ip), vehicle: distilled water + Tween-80 96 % of control | dose: 16.0 mg/kg/injection, schedule: Q01DX005 (ip), vehicle: distilled water + Tween-80 99 % of control | dose: 25.0 mg/kg/injection, schedule: Q01DX005 (ip), vehicle: water 100 % of control | dose: 32.0 mg/kg/injection, schedule: Q01DX005 (ip), vehicle: distilled water + Tween-80 91 % of control | dose: 50.0 mg/kg/injection, schedule: Q01DX005 (ip), vehicle: water 99 % of control | dose: 64.0 mg/kg/injection, schedule: Q01DX005 (ip), vehicle: distilled water + Tween-80 90 % of control | dose: 100.0 mg/kg/injection, schedule: Q01DX005 (ip), vehicle: water 96 % of control | dose: 200.0 mg/kg/injection, schedule: Q01DX005 (ip), vehicle: water 99 % of control

Cc1cccc(OCC(O)CN2CC2)c1 (configuration not stated)
inactive: [8] 112 % of control | [9] 120 % of control | [10] 103 % of control

N#CCOc1ccccc1
inactive: dose: 3.12 mg/kg/injection, schedule: Q01DX009 (ip), vehicle: other 101 % of control | dose: 6.25 mg/kg/injection, schedule: Q01DX009 (ip), vehicle: other 102 % of control | dose: 12.5 mg/kg/injection, schedule: Q01DX009 (ip), vehicle: other 99 % of control | dose: 25.0 mg/kg/injection, schedule: Q01DX009 (ip), vehicle: other 106 % of control
